Measured values: PubChem BioAssay (NCI)
“And” between values parts separate entries of the source, which are not always exact repeats. Equal values may be shown once.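 The compound was tested at five concentrations on cells cultured in 96-well plates, with a 48-hour exposure period. GI50: concentration for 50% inhibition of growth. TGI marks complete inhibition of growth.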

How the values were obtained:
Assay in all cases: NCI-60 cell line screen, 48 h
[1] = tested on: DU-145 prostate
[2] = tested on: HS 578T breast
[3] = tested on: MDA-MB-435
[4] = tested on: NCI/ADR-RES ovarian
[5] = tested on: T-47D breast
[6] = tested on: HOP-18 NSCLC
[7] = tested on: KM20L2 colon
[8] = tested on: M19-MEL melanoma
[9] = tested on: SNB-78 CNS

| SMILES | GI50 [1] | TGI [1] | GI50 [2] | TGI [2] | GI50 [3] | TGI [3] | GI50 [4] | TGI [4] | GI50 [5] | TGI [5] | TGI [6] | TGI [7] | TGI [8] | TGI [9] |
| --- | --- | --- | --- | --- | --- | --- | --- | --- | --- | --- | --- | --- | --- | --- |
| CN(C)C(=O)O[C@H]1CN[C@H](C#Cc2cc3ncnc(Nc4ccc(OCc5cccc(F)c5)c(Cl)c4)c3s2)C1 | 9.76 µM | > 25 µM | 10.4 µM | > 25 µM | > 25 µM | > 25 µM | 9.82 µM | > 25 µM | 2.98 µM | > 25 µM |  |  |  |  |
| c1c[nH]c(CN2CCOCC2)n1 |  | > 100 µM |  | > 100 µM |  | > 100 µM |  | > 100 µM |  | > 100 µM |  |  |  |  |
| COc1ccc(C(=O)NCCN(C)C)c2nc3ccccc3nc12 |  |  |  |  |  |  |  |  |  |  | > 82.6 µM | 26.5 µM | 9.9 µM | 38.4 µM |
| O=C(Nc1ccc(Cl)c(Cl)c1)NS(=O)(=O)c1cnccc1Oc1ccc(F)cc1 | 4.19 µM | 28.8 µM | 3.25 µM | > 100 µM | 2.98 µM | 12.2 µM | 4.38 µM | > 100 µM | 2.8 µM | 8.54 µM |  |  |  |  |
| Cc1ccc(-c2nc3nc(-c4ccc(F)cc4)nc(N4CCCNCC4)c3o2)cc1 | 1.68 µM | 3.11 µM | 1.78 µM | 3.69 µM | 1.71 µM | 3.13 µM | 1.91 µM | 3.63 µM |  |  |  |  |  |  |
| CN(C)CCNC(=O)Cn1ccc(=O)c2c([N+](=O)[O-])cccc21 |  | > 100 µM |  | > 100 µM |  | > 100 µM |  |  |  | > 100 µM |  |  |  |  |
| Cc1cc(I)cc(CN(C)CCCN2CCCC2)c1O | 31.4 µM | > 100 µM | 13.6 µM | 33.8 µM | 12.9 µM | 28.6 µM | 36.7 µM | > 100 µM | 19 µM | 57.2 µM |  |  |  |  |
| O=C1CCCCN1CCCCC#Cc1cccc(C#Cc2cccnc2)c1 | 43.2 µM | > 100 µM | 28.5 µM | > 100 µM | 28.9 µM | > 100 µM | 17.5 µM | 85.4 µM | 5.66 µM | 26 µM |  |  |  |  |
| COC(=O)C(/C(=N\O)C(=O)Nc1cccc(Cl)c1C)c1cnc2ccccc2n1 (centres undefined) |  | > 100 µM |  |  |  | > 100 µM |  | > 100 µM |  | > 100 µM |  |  |  |  |
| O=S(=O)(CCCl)c1ccc(Cl)cc1 | 3.33 µM | 12.3 µM | 3 µM | 19.2 µM | 2.7 µM | 12.6 µM | 3.86 µM | 40.6 µM | 3.69 µM | 19.9 µM |  |  |  |  |
| O=c1c(F)cn(Cc2ccccc2CCl)c(=O)n1Cc1ccccc1CCl | 1.79 µM | 3.42 µM | 1.92 µM | 6.93 µM | 1.68 µM | 3.4 µM | 2.97 µM | 11.8 µM | 1.57 µM | 4.11 µM |  |  |  |  |
| Cn1cc(C2=C(c3cn(C4CCN(Cc5ccccn5)CC4)c4ccccc34)C(=O)NC2=O)c2ccccc21 | > 100 µM | > 100 µM | 3.75 µM | > 72.1 µM | 2.87 µM | > 100 µM | 4.34 µM | > 100 µM | 5.45 µM | > 100 µM |  |  |  |  |
| CCC1=CC2CN(C1)Cc1c([nH]c3ccccc13)[C@@](C(=O)OC)(c1cc3c(cc1OC)N(C)[C@H]1[C@@](O)(C(=O)OC)[C@H](OC(C)=O)[C@]4(CC)C=CCN5CC[C@]31[C@@H]54)C2 (some centres undefined) |  |  | 0.00827 µM and 0.0277 µM | 19.8 µM and 45.7 µM | < 0.005 µM |  | 1.05 µM and 1.85 µM |  | 0.00507 µM | 50 µM |  |  |  |  |
| C[N+](C)(C)CC1CCCCC1O (centres undefined) |  |  |  |  |  |  |  |  |  |  | > 100 µM | > 100 µM | > 100 µM | > 100 µM |
| O=S(=O)(NCCCNc1nccc(-c2c(-c3ccc(F)cc3)nc3sccn23)n1)c1ccc2ccccc2c1 | 5.53 µM | > 100 µM | 9.13 µM | > 100 µM | 3.67 µM | > 100 µM | 3.89 µM | > 100 µM | 2.85 µM | > 100 µM |  |  |  |  |
| O=c1oc2ccc(I)cc2c(=O)n1-c1ccc(Cl)cc1F | 2.28 µM | 21.7 µM | 0.688 µM | 8.66 µM | 1.9 µM | 10.3 µM | 1.87 µM | 21.7 µM | 1.26 µM | 6.44 µM |  |  |  |  |
| Nc1ncnc2c1ncn2CC(O)CO (centres undefined) |  |  |  |  |  |  |  |  |  |  | > 100 µM |  | > 100 µM | > 100 µM |
| COc1ccc2c(c1)/C(=C/c1cc(OC)c(OC)c(OC)c1)C(=O)N2 | 0.655 µM | > 100 µM | 0.362 µM | 12.8 µM | 0.0318 µM | 0.253 µM | 0.142 µM | 1.74 µM | 0.385 µM |  |  |  |  |  |
| O=C(N/N=C/c1ccccc1O)c1ccccc1 | 3.27 µM | > 100 µM | 27.1 µM | > 100 µM | 4.68 µM | > 100 µM | 1.94 µM | 27.6 µM | 0.457 µM | > 100 µM |  |  |  |  |
| COc1cnc2c(c1)C(=O)c1c-2n(CCCN2CCN(C)CC2)c(=O)c2cc([N+](=O)[O-])ccc12 | 0.22 µM | 0.587 µM | 14.5 µM | 31 µM | 0.166 µM | 0.334 µM | 0.323 µM | 5.82 µM | 1.77 µM | 4.01 µM |  |  |  |  |
| O=c1cc(/C=C/c2ccccc2)[nH]c2cc3c(cc12)OCO3 |  | > 100 µM |  | 8.75 µM |  | 4.29 µM |  | 5.38 µM |  | 17.3 µM |  |  |  |  |
| CCCCn1c(-c2ccc(C(=O)O/N=C(\N)c3ccc4c(c3)OCO4)cc2)nc(-c2ccccc2)c1-c1ccccc1 | 1.65 µM | 3.21 µM | 1.88 µM | 5.09 µM | 1.93 µM | 3.9 µM | 1.52 µM | 4.48 µM | 1.85 µM | 4.95 µM |  |  |  |  |
| O=C(O)[C@H](c1ccccc1)[C@@H](C(=O)O)c1ccccc1 |  | > 100 µM |  | > 100 µM |  | > 100 µM |  | > 100 µM |  | > 100 µM |  |  |  |  |
| N#Cc1ccc(NC(=O)C(CC(=O)OCc2ccccc2)NC(=O)OCc2ccccc2)cc1 (centres undefined) |  | > 100 µM | > 100 µM | > 100 µM | > 100 µM | > 100 µM | > 100 µM | > 100 µM |  |  |  |  |  |  |
